Results as given in ChEMBL document CHEMBL5625227, “Discovery and optimization of 2,3-diaryl-1,3-thiazolidin-4-one-based derivatives as potent and selective cytotoxic agents with anti-inflammatory activity” (Eur J Med Chem, 2023).

Legend:
[1] = Selectivity index, ratio of IC50 for cytotoxicity against human MRC5 cells to IC50 for cytotoxicity against human MCF7 cells; conditions: MRC5 cells versus MCF7 cells
[2] = Selectivity index, ratio of IC50 for cytotoxicity against human MRC5 cells to IC50 for cytotoxicity against human A2780 cells; conditions: MRC5 cells versus A2780 cells
[3] = Selectivity index, ratio of IC50 for cytotoxicity against human MRC5 cells to IC50 for cytotoxicity against human HT-29 cells; conditions: MRC5 cells versus HT-29 cells
[4] = Cytotoxicity against human MRC5 cells assessed as inhibition in cell growth incubated for 72 hrs by MTT assay; type: toxicity, cell-based
HT-29 = test: Cytotoxicity against human HT-29 cells assessed as inhibition in cell growth incubated for 72 hrs by MTT assay; type: functional, cell-based; conditions: HT-29, 72 h
MCF7 = test: Cytotoxicity against human MCF7 cells assessed as inhibition in cell growth incubated for 72 hrs by MTT assay; type: functional, cell-based; conditions: MCF7, 72 h
A2780 = test: Cytotoxicity against human A2780 cells assessed as inhibition in cell growth incubated for 72 hrs by MTT assay; type: functional, cell-based; conditions: A2780, 72 h

Row | Compound | selectivity ratio at 72 h [1] | selectivity ratio at 72 h [2] | selectivity ratio at 72 h [3] | IC50 at 72 h [4] [nM] | IC50 (HT-29) [nM] | IC50 (MCF7) [nM] | IC50 (A2780) [nM]
1 | COc1ccc(NC(=O)COc2ccc(N3C(=O)CSC3c3ccccc3)cc2)cc1OC (configuration not stated) | 4.19 | 5.76 | 3.43 | 7370 | 2150 | 1760 | 1280
2 | Cc1ccc(NC(=O)COc2ccc(N3C(=O)CSC3c3ccc(Cl)cc3)cc2)cc1 (configuration not stated) | 1.53 | 1.94 | 3.57 | 3180 | 890 | 2080 | 1640
3 | COc1cccc2c1C(=O)c1c(O)c3c(c(O)c1C2=O)C[C@@](O)(C(=O)CO)C[C@@H]3O[C@H]1C[C@H](N)[C@H](O)[C@H](C)O1 [DOXORUBICIN] |  |  |  | 2500 | 1500 |  | 5120
4 | COc1ccc(NC(=O)COc2ccc(N3C(=O)CSC3c3ccc(Cl)cc3)cc2)cc1 (configuration not stated) | 0.81 | 0.78 | 1.28 | 1000 | 780 | 1240 | 1280
5 | O=C(COc1ccc(N2C(=O)CSC2c2ccc(Cl)cc2)cc1)Nc1ccccc1 (configuration not stated) | 1.13 | 0.57 | 3.36 | 1480 | 440 | 1310 | 2600
6 | COc1cc(NC(=O)COc2ccc(N3C(=O)CSC3c3ccccc3)cc2)cc(OC)c1OC (configuration not stated) | 4.13 | 4.69 | 2.92 | 9380 | 3210 | 2270 | 2000
7 | O=C(COc1ccc(N2C(=O)CSC2c2ccc(Cl)cc2)cc1)Nc1ccc(F)cc1 (configuration not stated) | 5.97 | 0.79 | 13.6 | 8720 | 640 | 1460 | 11000
8 | Cc1ccc(NC(=O)COc2ccc(N3C(=O)CSC3c3ccc(C)cc3)cc2)cc1 (configuration not stated) | 2.34 | 1.1 | 4.44 | 3110 | 700 | 1330 | 2820
9 | O=C(COc1ccc(N2C(=O)CSC2c2ccccc2)cc1)Nc1ccc(F)cc1 (configuration not stated) | 4.89 | 2.53 | 2.62 | 13500 | 5130 | 2750 | 5320
10 | COc1cc2c(c(OC)c1OC)-c1ccc(OC)c(=O)cc1[C@@H](NC(C)=O)CC2 [COLCHICINE] |  |  |  |  | 5190 |  | 23
11 | O=C(COc1ccc(N2C(=O)CSC2c2ccccc2)cc1)Nc1ccccc1 (configuration not stated) | 1.54 | 0.52 | 0.77 | 3690 | 4810 | 2390 | 7070
12 | Cc1ccc(C2SCC(=O)N2c2ccc(OCC(=O)Nc3ccccc3)cc2)cc1 (configuration not stated) | 0.77 | 0.32 | 0.79 | 890 | 1130 | 1150 | 2810
13 | O=C(COc1ccc(N2C(=O)CSC2c2ccc(Cl)cc2)cc1)Nc1ccc(Cl)cc1 (configuration not stated) | 2.83 | 0.84 | 5 | 6600 | 1320 | 2330 | 7840
